Laboratory results as given in patent US10633371B2, “EZH2 inhibitors and uses thereof” (Dana-Farber Cancer Institute, Inc., priority 2016, dated 2020).

Assays:
EZH1 = EZH1 (Homo sapiens, UniProt Q92800); test: Inhibitory activity and time dependence against EZH1 (FIG. 2A); assay type: biochemical; settings: result in words
Description: (§1) As depicted in FIG. 2A, Compounds EZ-40, EZ-49, EZ-51, EZ-52, EZ-53, and JQ-80 were profiled for inhibitory activity and time dependence against EZH1 and EZH2.

EZH2 = EZH2 (Homo sapiens, UniProt Q15910); test: Inhibitory activity and time dependence against EZH2 (FIG. 2A); assay type: biochemical; settings: result in words
Sequence of EZH2 (Q15910 whole entry): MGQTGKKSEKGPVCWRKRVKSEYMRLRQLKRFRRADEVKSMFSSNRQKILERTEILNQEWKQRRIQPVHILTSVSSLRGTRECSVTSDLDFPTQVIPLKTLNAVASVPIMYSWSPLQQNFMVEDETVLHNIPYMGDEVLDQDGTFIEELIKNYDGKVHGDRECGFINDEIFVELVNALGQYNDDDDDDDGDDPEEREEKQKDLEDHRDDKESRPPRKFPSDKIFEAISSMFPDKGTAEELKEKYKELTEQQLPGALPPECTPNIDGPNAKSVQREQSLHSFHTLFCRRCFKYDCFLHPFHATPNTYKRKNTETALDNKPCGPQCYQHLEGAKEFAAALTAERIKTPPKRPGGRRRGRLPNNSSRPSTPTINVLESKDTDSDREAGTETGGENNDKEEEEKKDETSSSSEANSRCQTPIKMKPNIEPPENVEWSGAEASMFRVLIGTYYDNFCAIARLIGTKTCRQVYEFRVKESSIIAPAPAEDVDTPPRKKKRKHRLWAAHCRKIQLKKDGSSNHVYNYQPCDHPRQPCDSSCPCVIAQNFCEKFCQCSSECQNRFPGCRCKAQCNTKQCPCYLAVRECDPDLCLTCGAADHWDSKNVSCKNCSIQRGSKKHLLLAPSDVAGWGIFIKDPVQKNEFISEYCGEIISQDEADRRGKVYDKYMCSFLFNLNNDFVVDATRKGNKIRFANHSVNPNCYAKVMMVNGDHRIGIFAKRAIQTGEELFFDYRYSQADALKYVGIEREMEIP
Sequence of EZH2 (O75530 whole entry partner): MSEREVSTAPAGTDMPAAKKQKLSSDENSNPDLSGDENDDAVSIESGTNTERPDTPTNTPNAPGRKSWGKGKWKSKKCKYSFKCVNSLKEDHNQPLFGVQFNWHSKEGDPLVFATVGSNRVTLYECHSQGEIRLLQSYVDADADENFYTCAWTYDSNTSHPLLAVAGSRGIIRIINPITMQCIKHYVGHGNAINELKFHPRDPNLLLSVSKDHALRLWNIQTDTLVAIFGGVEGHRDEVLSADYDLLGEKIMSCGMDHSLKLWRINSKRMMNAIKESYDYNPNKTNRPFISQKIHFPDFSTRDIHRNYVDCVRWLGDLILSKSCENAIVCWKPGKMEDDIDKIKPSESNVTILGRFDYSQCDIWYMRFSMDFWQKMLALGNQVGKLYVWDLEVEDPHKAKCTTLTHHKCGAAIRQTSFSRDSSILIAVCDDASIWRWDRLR
Sequence of EZH2 (Q15022 whole entry partner): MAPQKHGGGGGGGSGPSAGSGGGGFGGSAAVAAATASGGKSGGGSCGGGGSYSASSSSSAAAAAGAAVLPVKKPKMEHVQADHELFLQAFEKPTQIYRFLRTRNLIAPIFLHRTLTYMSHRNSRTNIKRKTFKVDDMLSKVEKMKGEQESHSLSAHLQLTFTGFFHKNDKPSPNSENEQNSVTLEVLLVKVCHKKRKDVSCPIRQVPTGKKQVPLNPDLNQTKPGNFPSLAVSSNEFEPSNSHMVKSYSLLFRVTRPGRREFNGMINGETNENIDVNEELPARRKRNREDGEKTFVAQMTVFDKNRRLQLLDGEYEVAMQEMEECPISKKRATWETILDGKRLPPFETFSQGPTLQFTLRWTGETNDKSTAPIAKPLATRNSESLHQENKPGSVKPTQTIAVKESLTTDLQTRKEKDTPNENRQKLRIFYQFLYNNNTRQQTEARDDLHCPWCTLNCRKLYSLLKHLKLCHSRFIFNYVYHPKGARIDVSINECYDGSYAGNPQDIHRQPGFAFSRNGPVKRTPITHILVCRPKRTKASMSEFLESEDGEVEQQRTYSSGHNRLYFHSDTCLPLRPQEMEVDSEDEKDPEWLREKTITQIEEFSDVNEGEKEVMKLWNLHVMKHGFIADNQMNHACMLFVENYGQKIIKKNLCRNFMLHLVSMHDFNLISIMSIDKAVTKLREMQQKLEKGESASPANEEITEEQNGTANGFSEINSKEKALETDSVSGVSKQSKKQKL
Description: as §1

Sequence of EZH1 (Q92800 whole entry): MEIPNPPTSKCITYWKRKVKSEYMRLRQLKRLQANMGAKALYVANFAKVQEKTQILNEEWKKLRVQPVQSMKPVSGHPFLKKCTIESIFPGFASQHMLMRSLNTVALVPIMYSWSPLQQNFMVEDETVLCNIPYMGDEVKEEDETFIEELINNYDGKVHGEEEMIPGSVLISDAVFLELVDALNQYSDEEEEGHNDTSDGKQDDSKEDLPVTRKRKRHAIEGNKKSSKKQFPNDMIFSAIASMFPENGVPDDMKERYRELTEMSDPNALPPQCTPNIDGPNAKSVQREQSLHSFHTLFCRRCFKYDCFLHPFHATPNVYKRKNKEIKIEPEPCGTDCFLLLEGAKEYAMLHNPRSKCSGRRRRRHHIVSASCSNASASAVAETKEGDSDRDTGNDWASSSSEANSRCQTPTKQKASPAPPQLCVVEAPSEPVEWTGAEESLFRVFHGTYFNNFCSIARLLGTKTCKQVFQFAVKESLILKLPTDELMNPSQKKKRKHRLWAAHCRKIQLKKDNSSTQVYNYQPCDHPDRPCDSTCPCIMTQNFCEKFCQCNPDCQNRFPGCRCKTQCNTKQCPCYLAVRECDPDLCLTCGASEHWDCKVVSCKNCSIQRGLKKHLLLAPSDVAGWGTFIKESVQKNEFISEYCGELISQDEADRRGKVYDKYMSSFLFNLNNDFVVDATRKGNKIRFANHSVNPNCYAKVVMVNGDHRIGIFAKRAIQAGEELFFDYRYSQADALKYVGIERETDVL
Sequence of EZH1 (O75530 whole entry partner): as the sequence (O75530 whole entry partner) above
Sequence of EZH1 (Q15022 whole entry partner): as the sequence (Q15022 whole entry partner) above

Compound: C=CC(=O)N(c1cc(-c2ccc(N3CCN(C)CC3)nc2)cc(C(=O)NCc2c(CCC)cc(C)[nH]c2=O)c1C)C1CCOCC1 [EZ-53]
- inhibitory activity (EZH1): high potency
- mode of inhibition (EZH1): irreversible inhibitor
- time dependence (EZH1): time dependency
- inhibitory activity (EZH2): high potency
- mode of inhibition (EZH2): irreversible inhibitor
- time dependence (EZH2): time dependency
